{"source": "patent US9493448B2", "about": "“Cycloalkane derivatives” (Daiichi Sankyo Company, Limited, priority 2012, dated 2016)", "key": {"[1]": {"tested_on": "painful diabetic neuropathy", "settings": "cited from earlier work"}, "hNav 1.7": {"target": "hNav 1.7 (Homo sapiens (Human), UniProt Q15858)", "sequence (Q15858 whole entry)": "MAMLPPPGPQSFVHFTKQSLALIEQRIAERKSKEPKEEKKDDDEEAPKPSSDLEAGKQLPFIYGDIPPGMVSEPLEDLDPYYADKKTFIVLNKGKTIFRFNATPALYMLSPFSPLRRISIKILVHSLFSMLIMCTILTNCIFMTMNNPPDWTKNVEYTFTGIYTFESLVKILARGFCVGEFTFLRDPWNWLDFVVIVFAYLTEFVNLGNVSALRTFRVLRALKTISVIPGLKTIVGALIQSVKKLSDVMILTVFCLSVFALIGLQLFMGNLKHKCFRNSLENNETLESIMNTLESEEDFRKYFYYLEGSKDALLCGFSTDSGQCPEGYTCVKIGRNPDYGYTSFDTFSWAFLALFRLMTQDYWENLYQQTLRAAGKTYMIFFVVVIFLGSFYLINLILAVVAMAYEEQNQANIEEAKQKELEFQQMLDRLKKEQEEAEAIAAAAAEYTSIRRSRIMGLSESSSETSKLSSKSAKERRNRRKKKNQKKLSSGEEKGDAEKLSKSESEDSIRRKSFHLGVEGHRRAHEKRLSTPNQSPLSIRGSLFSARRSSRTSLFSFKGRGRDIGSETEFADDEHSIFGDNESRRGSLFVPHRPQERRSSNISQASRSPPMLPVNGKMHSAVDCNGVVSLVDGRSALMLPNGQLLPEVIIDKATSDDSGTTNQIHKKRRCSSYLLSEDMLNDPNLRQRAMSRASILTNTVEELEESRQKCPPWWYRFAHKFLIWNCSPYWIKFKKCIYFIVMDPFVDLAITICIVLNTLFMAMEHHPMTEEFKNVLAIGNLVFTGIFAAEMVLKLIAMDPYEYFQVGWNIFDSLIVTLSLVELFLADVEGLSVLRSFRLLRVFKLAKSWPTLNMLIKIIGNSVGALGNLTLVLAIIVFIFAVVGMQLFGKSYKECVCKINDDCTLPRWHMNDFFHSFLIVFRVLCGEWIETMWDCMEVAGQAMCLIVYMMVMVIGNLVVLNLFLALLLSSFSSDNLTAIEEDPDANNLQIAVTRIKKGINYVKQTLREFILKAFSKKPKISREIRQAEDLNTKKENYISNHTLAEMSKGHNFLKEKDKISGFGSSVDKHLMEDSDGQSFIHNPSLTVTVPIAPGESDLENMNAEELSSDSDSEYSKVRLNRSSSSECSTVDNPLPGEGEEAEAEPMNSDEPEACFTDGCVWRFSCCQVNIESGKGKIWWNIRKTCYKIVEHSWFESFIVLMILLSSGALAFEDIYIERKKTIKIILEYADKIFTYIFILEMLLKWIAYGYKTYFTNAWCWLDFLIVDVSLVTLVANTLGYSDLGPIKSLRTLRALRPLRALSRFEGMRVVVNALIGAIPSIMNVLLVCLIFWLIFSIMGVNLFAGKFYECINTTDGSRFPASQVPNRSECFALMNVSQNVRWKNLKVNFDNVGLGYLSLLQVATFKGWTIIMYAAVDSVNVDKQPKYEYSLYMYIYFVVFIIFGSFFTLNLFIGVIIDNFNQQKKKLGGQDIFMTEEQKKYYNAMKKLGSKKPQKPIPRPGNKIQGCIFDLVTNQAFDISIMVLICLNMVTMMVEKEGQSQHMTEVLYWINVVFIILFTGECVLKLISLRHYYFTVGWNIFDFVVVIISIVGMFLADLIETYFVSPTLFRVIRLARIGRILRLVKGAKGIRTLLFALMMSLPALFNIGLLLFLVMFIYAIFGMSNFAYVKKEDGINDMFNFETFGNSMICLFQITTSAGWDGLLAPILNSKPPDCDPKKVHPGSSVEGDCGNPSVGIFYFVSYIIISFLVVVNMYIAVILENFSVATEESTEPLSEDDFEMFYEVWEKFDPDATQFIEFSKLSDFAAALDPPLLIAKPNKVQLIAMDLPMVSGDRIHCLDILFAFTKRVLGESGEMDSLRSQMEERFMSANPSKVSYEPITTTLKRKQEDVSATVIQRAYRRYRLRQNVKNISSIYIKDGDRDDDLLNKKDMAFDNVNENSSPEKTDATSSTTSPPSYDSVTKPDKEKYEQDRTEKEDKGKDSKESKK", "sequence (Q07699 19-218 partner)": "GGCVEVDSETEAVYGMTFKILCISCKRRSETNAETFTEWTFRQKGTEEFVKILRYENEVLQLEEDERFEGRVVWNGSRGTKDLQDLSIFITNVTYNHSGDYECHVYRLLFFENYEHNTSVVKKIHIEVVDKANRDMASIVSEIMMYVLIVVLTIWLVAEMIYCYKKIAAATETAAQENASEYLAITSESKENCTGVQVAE", "sequence (O60939 30-215 partner)": "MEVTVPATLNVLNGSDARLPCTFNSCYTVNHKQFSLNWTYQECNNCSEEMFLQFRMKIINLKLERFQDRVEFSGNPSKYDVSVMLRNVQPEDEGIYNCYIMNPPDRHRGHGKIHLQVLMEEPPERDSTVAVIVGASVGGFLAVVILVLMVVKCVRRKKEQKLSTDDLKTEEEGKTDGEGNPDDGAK", "experiment": "Electrophysiological evaluation, automated patch clamp IonWorks Quattro (Population Patch Clamp mode)", "format": "cell-based", "settings": "HEK293A cells stably expressing hNav 1.7/β1/β2; response to second depolarization pulse, pre-pulse potential set to V1/2; read-out: hNav1.7 IC50"}, "[2]": {"tested_on": "mice and rats affected by thermal hyperalgesia", "experiment": "Thermal hyperalgesia assay;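 also: measurement times set by the study director and not disclosed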", "format": "in vivo", "settings": "oral administration, constant dose, against the vehicle treatment group; latency to escape behaviors after thermal stimulation of hind paw"}}}
{"smiles": "CC(C)C[C@H](CN)CC(=O)O", "note": "[pregabalin]", "values": [{"measurement": "effective therapeutic ratio based on self-evaluation of patients", "setting": "[1]", "value": "approximately 50%"}]}
{"smiles": "Cn1nccc1[C@H]1C[C@H](OCc2ccccc2)C[C@@H]1Oc1cc(F)c(S(=O)(=O)Nc2ccncn2)cc1F", "note": "(relative stereo) [Example 98, 4-{[(1S*,2R*,4S*)-4-(Benzyloxy)-2-(1-methyl-1H-pyrazol-5-yl)cyclopentyl]oxy}-2,5-difluoro-N-(pyrimidin-4-yl)benzenesulfonamide]", "values": [{"measurement": "IC50", "setting": "hNav 1.7", "value": 46, "unit": "nM"}, {"measurement": "Ratio of improving pain score (%)", "setting": "[2]", "value": "C (“C” when the rate was 0 to 30%)"}]}
{"smiles": "CCn1nccc1[C@H]1CCCC[C@@H]1Oc1ccc(S(=O)(=O)Nc2ccncn2)c(F)c1F", "note": "(relative stereo) [Example 41, 4-{[(1S*,2R*)-2-(1-Ethyl-1H-pyrazol-5-yl)cyclohexyl]oxy}-2,3-difluoro-N-(pyrimidin-4-yl)benzenesulfonamide]", "values": [{"measurement": "IC50", "setting": "hNav 1.7", "value": 160, "unit": "nM"}, {"measurement": "Ratio of improving pain score (%)", "setting": "[2]", "value": "B (“B” when the rate was 31 to 60%)"}]}
{"smiles": "Cn1nccc1[C@H]1CCCCC[C@@H]1Oc1ccc(S(=O)(=O)Nc2ccncn2)cc1C#N", "note": "(relative stereo) [Example 55, 3-Cyano-4-{[(1S*,2R*)-2-(1-methyl-1H-pyrazol-5-yl)cycloheptyl]oxy}-N-(pyrimidin-4-yl)benzenesulfonamide]", "values": [{"measurement": "IC50", "setting": "hNav 1.7", "value": 39, "unit": "nM"}, {"measurement": "Ratio of improving pain score (%)", "setting": "[2]", "value": "C (“C” when the rate was 0 to 30%)"}]}
{"smiles": "O=S(=O)(Nc1ccncn1)c1cc(F)c(O[C@H]2CCCC[C@@H]2c2cn[nH]c2)cc1F", "note": "(relative stereo) [Example 33, 2,5-Difluoro-4-{[(1S*,2R*)-2-(1H-pyrazol-4-yl)cyclohexyl]oxy}-N-(pyrimidin-4-yl)benzenesulfonamide]", "values": [{"measurement": "IC50", "setting": "hNav 1.7", "value": 300, "unit": "nM"}, {"measurement": "Ratio of improving pain score (%)", "setting": "[2]", "value": "A (“A” when the rate was 61 to 100%)"}]}
{"smiles": "Cc1c(O[C@H]2CCCC[C@@H]2c2ccnn2C)ccc(S(=O)(=O)Nc2ccncn2)c1F", "note": "(relative stereo) [Example 66, 2-Fluoro-3-methyl-4-{[(1S*,2R*)-2-(1-methyl-1H-pyrazol-5-yl)cyclohexyl]oxy}-N-(pyrimidin-4-yl)benzenesulfonamide]", "values": [{"measurement": "IC50", "setting": "hNav 1.7", "value": 17, "unit": "nM"}, {"measurement": "Ratio of improving pain score (%)", "setting": "[2]", "value": "A (“A” when the rate was 61 to 100%)"}]}
